Like-named read-outs stand apart in the source and are kept apart here.
Biological target: T1, cAMP-phosphodiesterase (PDE)
T1 construct: gene PDE1A; enzyme of commercial Abcam colorimetric PDE kit
Experiment: colorimetric PDE activity kit ab139460, plate reader […] nm
Assay type: biochemical
Conditions: two-range dilution, measuring error 10%, isoenzyme not told, read-out: IC50 **^1

IC50 [µM] | IC50 (control from kit) [µM] | Structure (SMILES)
5 |  | OCCN(CCO)c1nc(N2CCCCC2)c2nc(N(CCO)CCO)nc(N3CCCCC3)c2n1 [10 (D10), 2,6-bis-diethanolamino-4,8-dipiperidinopyrimido(5,4-d)-pyrimidine]
 | 5 | CC(C)Cn1c(=O)n(C)c(=O)c2[nH]cnc21 [compound 11, 3-isobutyl-1-methylxanthine]
